Source: article PMC12203311, “Design, synthesis, in silico and in vitro evaluation of pyrrole–indole hybrids as dual tubulin and aromatase inhibitors with potent anticancer activities” (RSC Advances, 2025)

Assays:
UO-31 = experiment: NCI60 five-dose screen; assay type: cell-based; details: Homo sapiens, UO-31, renal cancer
HT29 = experiment: NCI60 five-dose screen; assay type: cell-based; details: Homo sapiens, HT-29, HT29, colon cancer; for CC50: read-out: LC50 (the source's name)
OVCAR-4 = experiment: NCI60 five-dose screen; assay type: cell-based; details: Homo sapiens, OVCAR-4, ovarian cancer; for CC50: read-out: LC50 (the source's name)
SW-620 = experiment: NCI60 five-dose screen; assay type: cell-based; details: Homo sapiens, SW-620, colon cancer; for CC50: read-out: LC50 (the source's name)
MCF7 = experiment: NCI60 five-dose screen; assay type: cell-based; details: Homo sapiens, MCF7, breast cancer; for CC50: read-out: LC50 (the source's name)
NCI-H460 = experiment: NCI60 five-dose screen; assay type: cell-based; details: Homo sapiens, NCI-H460, NSC lung cancer; for CC50: read-out: LC50 (the source's name)
K-562 = experiment: NCI60 five-dose screen; assay type: cell-based; details: Homo sapiens, K562, K-562, leukemia; for CC50: read-out: LC50 (the source's name)
HOP-92 = experiment: NCI60 five-dose screen; assay type: cell-based; details: Homo sapiens, HOP-92, NSC lung cancer; for CC50: read-out: LC50 (the source's name)
NCI-H522 = experiment: NCI60 five-dose screen; assay type: cell-based; details: Homo sapiens, NCI-H522, NSC lung cancer; for CC50: read-out: LC50 (the source's name)
KM12 = experiment: NCI60 five-dose screen; assay type: cell-based; details: Homo sapiens, KM12, colon cancer; for CC50: read-out: LC50 (the source's name)
RXF 393 = experiment: NCI60 five-dose screen; assay type: cell-based; details: Homo sapiens, RXF 393, renal cancer; for CC50: read-out: LC50 (the source's name)
HCT-15 = experiment: NCI60 five-dose screen; assay type: cell-based; details: Homo sapiens, HCT-15, colon cancer; for CC50: read-out: LC50 (the source's name)
CCRF-CEM = experiment: NCI60 five-dose screen; assay type: cell-based; details: Homo sapiens, leukemia; for CC50: read-out: LC50 (the source's name)
SF-295 = experiment: NCI60 five-dose screen; assay type: cell-based; details: Homo sapiens, SF-295, CNS cancer; for CC50: read-out: LC50 (the source's name)
U251 = experiment: NCI60 five-dose screen; assay type: cell-based; details: Homo sapiens, U-251, U251, CNS cancer; for CC50: read-out: LC50 (the source's name)
EKVX = experiment: NCI60 five-dose screen; assay type: cell-based; details: Homo sapiens, NSC lung cancer; for CC50: read-out: LC50 (the source's name)
NCI/ADR-RES = experiment: NCI60 five-dose screen; assay type: cell-based, human; details: Homo sapiens, ovarian cancer; for CC50: read-out: LC50 (the source's name)
PC-3 = experiment: NCI60 five-dose screen; assay type: cell-based; details: Homo sapiens, PC-3, prostate cancer; for CC50: read-out: LC50 (the source's name)
HCT-116 = experiment: NCI60 five-dose screen; assay type: cell-based; details: Homo sapiens, HCT-116, colon cancer; for CC50: read-out: LC50 (the source's name)
NCI-H322M = experiment: NCI60 five-dose screen; assay type: cell-based; details: Homo sapiens, NSC lung cancer; for CC50: read-out: LC50 (the source's name)
T-47D = experiment: NCI60 five-dose screen; assay type: cell-based; details: Homo sapiens, T47D, breast cancer; for CC50: read-out: LC50 (the source's name)
OVCAR-8 = experiment: NCI60 five-dose screen; assay type: cell-based; details: Homo sapiens, OVCAR-8, ovarian cancer; for CC50: read-out: LC50 (the source's name)
SF-539 = experiment: NCI60 five-dose screen; assay type: cell-based; details: Homo sapiens, SF-539, CNS cancer; for CC50: read-out: LC50 (the source's name)
SK-MEL-28 = experiment: NCI60 five-dose screen; assay type: cell-based; details: Homo sapiens, SK-MEL-28, melanoma; for CC50: read-out: LC50 (the source's name)
MOLT-4 = experiment: NCI60 five-dose screen; assay type: cell-based; details: Homo sapiens, MOLT-4, leukemia; for CC50: read-out: LC50 (the source's name)
IGROV1 = experiment: NCI60 five-dose screen; assay type: cell-based; details: Homo sapiens, IGROV-1; IGROV1, ovarian cancer
UACC-257 = experiment: NCI60 five-dose screen; assay type: cell-based; details: Homo sapiens, UACC-257, melanoma; for CC50: read-out: LC50 (the source's name)
[1] = system: T47D breast cancer cell line; experiment: Cytotoxicity MTT assay, T47D; assay type: cell-based, human
Method: (§1) T47D (ATCC HTB-133) was purchased from Biomedia (Thailand) Co., LTD. L929 (ATCC CCL-1) was received as a gift from Prof. Tanapat Palaga, Department of Microbiology, Faculty of Science, Chulalongkorn University, Bangkok, Thailand. The cells were cultured in Dulbecco's Modified Eagle's Medium (DMEM; Gibco) supplemented with 10% fetal bovine serum (FBS; HyClone), 100 U mL^−1 penicillin and 100 µg mL^−1 streptomycin (Gibco) at 37 °C with 5% CO2.
(§2) The antiproliferative activity was determined by MTT assay. Briefly, the cells were plated into a 96-well microplate at the density of 10 000 cells per well. The cells were allowed to grow overnight before treated with the solutions of compounds in culture medium at the designated concentrations for 48 hours. The medium was then replaced with MTT solution (0.5 mg mL^−1 MTT in culture medium) and incubated for 3 hours. A 100 µL of DMSO was used to dissolve the produced formazan. Absorbance at 570 nm was then measured using a microplate reader (Varioskan™ LUX multimode microplate reader, Thermo Scientific™). Percent viability was calculated relative to the vehicle control (DMSO).

SN12C = experiment: NCI60 five-dose screen; assay type: cell-based; details: Homo sapiens, renal cancer; for CC50: read-out: LC50 (the source's name)
SK-MEL-2 = experiment: NCI60 five-dose screen; assay type: cell-based; details: Homo sapiens, SK-MEL-2, melanoma; for CC50: read-out: LC50 (the source's name)
[2] = system: L929 normal mouse fibroblast cell line; experiment: Cytotoxicity MTT assay, L929; assay type: cell-based; details: 50 µM single concentration
Method: as §1, §2

With O=C(N/N=C/c1cc[nH]c1)c1[nH]c2ccc(Br)cc2c1-c1ccccc1 [Derivative 3b, (E)-N′-((1H-Pyrrol-3-yl)methylene)-5-bromo-3-phenyl-1H-indole-2-carbohydrazide] the GI50 (UO-31) was 1.66 µM, the CC50 (UO-31; read-out: LC50 (the source's name)) was 41 µM and the GI50 (HT29) was 0.68 µM. For the same compound, the CC50 (HT29) was 34.5 µM, the GI50 (OVCAR-4) was 4.82 µM and the CC50 (OVCAR-4) was 45.2 µM. It also gave a GI50 (SW-620) of 0.548 µM, a CC50 (SW-620) of 49.4 µM and a GI50 (MCF7) of 0.436 µM. For the same compound, the CC50 (MCF7) was 49.8 µM, the GI50 (NCI-H460) was 0.657 µM and the CC50 (NCI-H460) was 46 µM. The GI50 (K-562) was 0.429 µM, the CC50 (K-562) was 97 µM and the GI50 (HOP-92) was 1.87 µM. It also gave a CC50 (HOP-92) of 50.3 µM, a GI50 (NCI-H522) of 0.925 µM and a CC50 (NCI-H522) of 24 µM. It also gave a GI50 (KM12) of 0.996 µM, a CC50 (KM12) of 37.8 µM and a GI50 (RXF 393) of 1.78 µM. For the same compound, the CC50 (RXF 393) was 46.5 µM, the GI50 (HCT-15) was 0.918 µM and the CC50 (HCT-15) was 34 µM. For the same compound, the GI50 (CCRF-CEM) was 0.821 µM, the CC50 (CCRF-CEM) was > 100 µM and the GI50 (SF-295) was 1.94 µM. For the same compound, the CC50 (SF-295) was 33.8 µM, the GI50 (U251) was 2.08 µM and the CC50 (U251) was 40.8 µM. For the same compound, the GI50 (EKVX) was 4.41 µM, the CC50 (EKVX) was 41.7 µM and the GI50 (NCI/ADR-RES) was 0.636 µM. For the same compound, the CC50 (NCI/ADR-RES) was 27.1 µM, the GI50 (PC-3) was 2 µM and the CC50 (PC-3) was > 100 µM. The GI50 (HCT-116) was 0.991 µM, the CC50 (HCT-116) was > 100 µM and the GI50 (NCI-H322M) was 2.38 µM. For the same compound, the CC50 (NCI-H322M) was 37.2 µM, the GI50 (T-47D) was 3.49 µM and the CC50 (T-47D) was > 100 µM. It also gave a GI50 (OVCAR-8) of 1.21 µM, a CC50 (OVCAR-8) of 38.6 µM and a GI50 (SF-539) of 0.869 µM. It also gave a CC50 (SF-539) of 17 µM, a GI50 (SK-MEL-28) of 5.75 µM and a CC50 (SK-MEL-28) of 44.4 µM. For the same compound, the GI50 (MOLT-4) was 1.52 µM, the CC50 (MOLT-4) was > 100 µM and the GI50 (IGROV1) was 1.27 µM. For the same compound, the GI50 (UACC-257) was 8.22 µM, the CC50 (UACC-257) was 47.8 µM and the “activity against T47D in two-dose screen” value ([1]; 10 µM and 50 µM) was “weak activity”. The GI50 (SN12C) was 1.49 µM, the CC50 (SN12C) was 37.7 µM and the GI50 (SK-MEL-2) was 2.48 µM. It also gave a CC50 (SK-MEL-2) of 38.4 µM.

Cc1[nH]c(/C=N/NC(=O)c2[nH]c3ccc(Br)cc3c2-c2ccccc2)c(C)c1[N+](=O)[O-] [Derivative 3r, (E)-5-Bromo-N′-((3,5-dimethyl-4-nitro-1H-pyrrol-2-yl)methylene)-3-phenyl-1H-indole-2-carbohydrazide] gave a GI50 (HT29) of 1.84 µM, a CC50 (HT29) of 6.67 µM and a GI50 (OVCAR-4) of 1.97 µM. The CC50 (OVCAR-4) was 18.8 µM, the GI50 (SW-620) was 2.06 µM and the CC50 (SW-620) was 19.1 µM. The GI50 (MCF7) was 2.57 µM, the CC50 (MCF7) was 29.9 µM and the GI50 (NCI-H460) was 1.87 µM. The CC50 (NCI-H460) was 8.05 µM, the GI50 (K-562) was 2.69 µM and the CC50 (K-562) was > 100 µM. It also gave a GI50 (HOP-92) of 2.51 µM, a CC50 (HOP-92) of 45.8 µM and a GI50 (NCI-H522) of 2.43 µM. For the same compound, the CC50 (NCI-H522) was 29.6 µM, the GI50 (KM12) was 1.92 µM and the CC50 (KM12) was 11.6 µM. For the same compound, the GI50 (RXF 393) was 1.7 µM, the CC50 (RXF 393) was 15.9 µM and the GI50 (HCT-15) was 2.41 µM. The CC50 (HCT-15) was 26.4 µM, the GI50 (CCRF-CEM) was 1.89 µM and the CC50 (CCRF-CEM) was > 100 µM. The GI50 (SF-295) was 2.32 µM, the CC50 (SF-295) was 21.2 µM and the GI50 (U251) was 1.85 µM. For the same compound, the CC50 (U251) was 13.4 µM, the GI50 (EKVX) was 3.34 µM and the CC50 (EKVX) was 34.9 µM. The GI50 (NCI/ADR-RES) was 1.89 µM, the CC50 (NCI/ADR-RES) was 9.15 µM and the GI50 (PC-3) was 2.85 µM. The CC50 (PC-3) was 45.5 µM, the GI50 (HCT-116) was 1.98 µM and the CC50 (HCT-116) was 10.4 µM. For the same compound, the GI50 (NCI-H322M) was 4.22 µM, the CC50 (NCI-H322M) was 89.5 µM and the GI50 (T-47D) was 2.51 µM. It also gave a CC50 (T-47D) of 33.5 µM, a GI50 (OVCAR-8) of 3.08 µM and a CC50 (OVCAR-8) of 36.5 µM. It also gave a GI50 (SF-539) of 3.51 µM, a CC50 (SF-539) of 35.7 µM and a GI50 (SK-MEL-28) of 3.56 µM. The CC50 (SK-MEL-28) was 38.7 µM, the GI50 (MOLT-4) was 2.29 µM and the CC50 (MOLT-4) was > 100 µM. It also gave a GI50 (IGROV1) of 3.83 µM, a GI50 (UACC-257) of 3.13 µM and a CC50 (UACC-257) of 48.1 µM. For the same compound, the IC50 ([1]; Homo sapiens, T47D, MTT, 48 hours) was 12.3 ± 0.3 µM, the GI50 (SN12C) was 1.74 µM and the CC50 (SN12C) was 6.73 µM. The L929 cell survival [2] was > 80%, the “L929 toxicity at single concentration” value [2] was “— ^c (No toxicity observed at 50 µM single concentration (>80% cell survival).)” and the GI50 (SK-MEL-2) was 2.11 µM. For the same compound, the CC50 (SK-MEL-2) was 22.6 µM.
